The text below walks through data of patent US12180192B2, “Modulators of THR-β and methods of use thereof” (ALIGOS THERAPEUTICS, INC., priority 2019, dated 2024).

What all share (type): cell-based
One experiment concerns the target T1, THR beta (Homo sapiens, UniProt P10828).
T1 construct: expressed in transfected cells; host or cells: HEK293T (ATCC CRL-3216)
T1 sequence (P10828 1-461): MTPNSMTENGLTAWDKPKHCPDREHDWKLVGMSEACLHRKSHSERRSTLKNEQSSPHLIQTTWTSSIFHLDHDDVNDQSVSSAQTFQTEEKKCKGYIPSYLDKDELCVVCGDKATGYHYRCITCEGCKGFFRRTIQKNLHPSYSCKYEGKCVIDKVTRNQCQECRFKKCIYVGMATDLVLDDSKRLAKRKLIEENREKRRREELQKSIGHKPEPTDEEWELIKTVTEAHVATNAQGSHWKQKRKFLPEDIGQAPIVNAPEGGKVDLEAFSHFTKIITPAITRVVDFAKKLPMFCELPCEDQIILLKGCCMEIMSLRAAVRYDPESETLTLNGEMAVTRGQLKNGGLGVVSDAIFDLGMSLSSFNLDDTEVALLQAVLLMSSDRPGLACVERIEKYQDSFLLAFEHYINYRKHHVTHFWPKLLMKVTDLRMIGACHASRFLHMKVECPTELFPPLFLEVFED
T1 sequence (P19793 1-462 partner): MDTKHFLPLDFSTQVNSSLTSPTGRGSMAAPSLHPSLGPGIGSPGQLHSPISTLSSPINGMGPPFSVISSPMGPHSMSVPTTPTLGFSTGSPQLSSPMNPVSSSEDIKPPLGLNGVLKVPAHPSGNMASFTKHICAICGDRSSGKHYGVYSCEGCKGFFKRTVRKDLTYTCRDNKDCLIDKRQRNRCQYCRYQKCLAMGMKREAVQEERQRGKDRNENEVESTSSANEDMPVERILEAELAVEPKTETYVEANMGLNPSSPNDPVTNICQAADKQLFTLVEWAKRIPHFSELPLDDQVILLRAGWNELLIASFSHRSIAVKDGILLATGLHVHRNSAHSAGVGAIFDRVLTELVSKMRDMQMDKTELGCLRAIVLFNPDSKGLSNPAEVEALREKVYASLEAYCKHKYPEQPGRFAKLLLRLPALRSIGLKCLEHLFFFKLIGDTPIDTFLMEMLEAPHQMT
The experiment is described as follows: HEK293T THR beta/RXR luciferase reporter assay (Assay 2). Conditions: for Emax: HEK-293T, read-out: Activity category Assay 2 THRβ (Emax); for EC50: THR-beta, HEK293T reporter assay, read-out: Activity category Assay 2 (EC50, THR-beta agonist). Summed up:
(§1)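 Compounds tested as ten-point five-fold dilution series for 18-24 h on transiently transfected HEK293T cells carrying TRE-driven luciferase plus RXR and either THR alpha or beta expression plasmids. Read-out by One-Glo luminescence, expressed as percent agonism relative to negative and positive controls.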
Background: Reporter assays use an easily measured gene product as a stand-in for the process of interest.

The target in the next experiment is T2, THR alpha (Homo sapiens, UniProt P10827).
T2 construct: expressed in transfected cells; host or cells: HEK293T (ATCC CRL-3216)
T2 sequence (P10827 1-410 isoform P10827-2): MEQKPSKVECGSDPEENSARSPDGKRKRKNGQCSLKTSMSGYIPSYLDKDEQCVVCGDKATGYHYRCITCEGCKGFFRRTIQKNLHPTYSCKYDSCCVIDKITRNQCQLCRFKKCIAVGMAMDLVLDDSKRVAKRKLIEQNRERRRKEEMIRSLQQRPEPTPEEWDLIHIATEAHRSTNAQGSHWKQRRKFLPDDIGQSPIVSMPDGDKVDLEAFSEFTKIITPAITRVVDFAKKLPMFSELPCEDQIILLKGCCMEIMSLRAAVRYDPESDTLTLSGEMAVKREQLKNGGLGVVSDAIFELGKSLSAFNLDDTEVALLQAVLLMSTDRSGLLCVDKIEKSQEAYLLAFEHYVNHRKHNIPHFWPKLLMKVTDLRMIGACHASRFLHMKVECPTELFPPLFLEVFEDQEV
T2 sequence (P19793 1-462 partner): T1 sequence (P19793 1-462 partner)
The experiment can be described thus: HEK293T THR alpha/RXR luciferase reporter assay (Assay 2). To be noted: Assay 2; for Emax: HEK-293T, read-out: Activity category Assay 2 THRα (Emax); for EC50: Table 4, THR-alpha, read-out: Activity category Assay 2 (EC50, THR-alpha agonist activity). The gist of the method:
as §1

Experiment [1] deals with CPT1A gene expression in Huh-7 cells. The experiment is described as follows: Huh-7 differential gene expression, CPT1A RT-qPCR (Assay 3). To be noted: Table 6, Huh-7 cells, CPT1A, 24 hr treatment; for EC50: read-out: Activity category Assay 3 EC50; for Emax: read-out: Activity category Assay 3 Emax. The gist of the method: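 Huh-7 cells in DMEM with 10% resin-stripped (TH-depleted) FBS were treated 24 hr with compounds at 0.1% DMSO, in biological duplicates. CPT1A mRNA was measured by TaqMan RT-qPCR against ACTB and TFG and quantified by 2-ΔΔCt. EC50 and Emax came from four-parameter logistic fits with no top constraint.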
Background: Real-time PCR tracks product formation cycle by cycle.

In general, Emax refers to the greatest response seen or fitted, relative to the assay's reference. What is called EC50 is the concentration giving half of the maximal effect.

Read-outs that look alike come from different tables or passages of the source. A value given as a limit tells only on which side of the number the result lay.

Turning to `Nc1nn(-c2cc(Cl)c(Oc3cc(-c4ccc5ccccc5c4)c(=O)[nH]n3)c(Cl)c2)c(=O)[nH]c1=O` [Compound 67, 6-amino-2-(3,5-dichloro-4-[[5-(naphthalen-2-yl)-6-oxo-1H-pyridazin-3-yl]oxy]phenyl)-4H-1,2,4-triazine-3,5-dione], the Emax on THR beta (Table 5, Assay 2, THRβ) was 50 to 75%; on THR alpha (Table 5, THRα) it was below 50%; in experiment [1] (Homo sapiens, Huh-7, 24 h), above 75%. The EC50 on THR beta was 50 to 250 nM; on THR alpha, above 10000 nM; in experiment [1] (Homo sapiens, Huh-7, 24 h), above 100 nM.
For `Nc1nn(-c2cc(Cl)c(Oc3ccc4c(c3)C3(CCCC3)C(=O)N4)c(Cl)c2)c(=O)[nH]c1=O` [Compound 83], the Emax on THR beta (Table 5, Assay 2, THRβ) is 50 to 75%; on THR alpha (Table 5, THRα), above 75%; in experiment [1] (Homo sapiens, Huh-7, 24 h) it was above 75%. Further, the EC50 on THR beta was below 50 nM; at THR alpha it was below 50 nM; in experiment [1] (Homo sapiens, Huh-7, 24 h), below 100 nM.
Regarding `Nc1nn(-c2cc(Cl)c(Oc3cc(C4Cc5ccccc54)c(=O)[nH]n3)c(Cl)c2)c(=O)[nH]c1=O` (centres unmarked) [Compound 158], the Emax on THR beta (Table 5, Assay 2, THRβ) is 50 to 75%; at THR alpha (Table 5, THRα), below 50%; in experiment [1] (Homo sapiens, Huh-7, 24 h), below 50%. The EC50 on THR beta was 50 to 250 nM; at THR alpha, 1000 to 10000 nM; in experiment [1] (Homo sapiens, Huh-7, 24 h), above 100 nM.
As for `CC(c1cc(Oc2c(Cl)cc(-n3nc(N)c(=O)[nH]c3=O)cc2Cl)n[nH]c1=O)C1CC(F)(F)C1` (single isomer, unassigned) [Compound 61-B, 6-amino-2-[3,5-dichloro-4-([5-[1-(3,3-difluorocyclobutyl)ethyl]-6-oxo-1H-pyridazin-3-yl]oxy)phenyl]-4H-1,2,4-tri-azine-3,5-dione], the EC50 on THR beta is 250 to 1000 nM; on THR alpha, 250 to 1000 nM; in experiment [1], above 100 nM. Besides, the “Activity category Assay 2 THRβ (Emax)” value at THR beta (Table 5, Assay 2, THRβ) is recorded as “A (Emax≥75%)”. Further, at THR alpha (Table 5, THRα), the “Activity category Assay 2 THRα (Emax)” value is “C (Emax<50%)”. Besides, in experiment [1], the “Activity category Assay 3 Emax” value was “A (Emax≥75%)”.
Consider `CC(C)c1c[nH]c2nnc(Oc3c(Cl)cc(-n4nc(C#N)c(=O)[nH]c4=O)cc3Cl)cc12` [Compound 52, 2-[3,5-dichloro-4-([5-isopropyl-7H-pyrrolo[2,3-c]pyridazin-3-yl]oxy)phenyl]-3,5-dioxo-4H-1,2,4-triazine-6-carbonitrile], for which the Emax at THR beta (Table 5, Assay 2, THRβ) was above 75%; on THR alpha (Table 5, THRα) it was 50 to 75%; in experiment [1] (Homo sapiens, Huh-7, 24 h) it was above 75%. Besides, the EC50 at THR beta is above 10000 nM; at THR alpha, above 10000 nM; in experiment [1] (Homo sapiens, Huh-7, 24 h), above 100 nM.
Take `CC1(C)CC(c2cc(Oc3c(Cl)cc(-n4nc(N)c(=O)[nH]c4=O)cc3Cl)n[nH]c2=O)C1` [Compound 89, 6-Amino-2-(3,5-dichloro-4-((5-(3,3-dimethylcyclobutyl)-6-oxo-1,6-dihydropyridazin-3-yl)oxy)phenyl)-1,2,4-triazine-3,5(2H,4H)-dione]: the Emax on THR beta (Table 5, Assay 2, THRβ) was 50 to 75%; at THR alpha (Table 5, THRα) it was below 50%; in experiment [1] (Homo sapiens, Huh-7, 24 h), above 75%. Besides, the EC50 on THR alpha lay within 1000 to 10000 nM; in experiment [1] (Homo sapiens, Huh-7, 24 h) it was 100 to 1000 nM.
